The results in this text go back to patent publication US20210361715A1, “USE OF EXOSOME DERIVED FROM MESENCHYMAL STEM CELLS CO-CULTURED WITH MELATONIN IN PREVENTION AND TREATMENT OF CHRONIC KIDNEY DISEASE” (STEM BIO CO., LTD., priority 2020, published 2021).

For experiment [1], the system named is miR-4516. In words: miRNA / miR-4516 expression by RNA microarray and qPCR in MSCs and exosomes. Format: cell-based, human. The note with it: healthy MSCs and CKD-MSCs treated with melatonin; qPCR; FIG. 4F.
In experiment [2] the test system is cellular prion protein (PrPC). Format: cell-based, human. To be noted: healthy and CKD patient MSCs treated with melatonin; ELISA; FIGS. 4B, 4C.

With `COc1ccc2[nH]cc(CCNC(C)=O)c2c1` [melatonin], the “expression level of miR-4516 in stem cells” value in experiment [1] was “increase”. Moreover, the “expression of prion proteins present in the exosomes extracted from stem cells” value in experiment [2] is “increases”.
